Assay results: patent US4224442A, “7-Ureido acetamido substituted cephalosporin antibiotics” (Eli Lilly and Company, priority 1975, dated 1980)
In brackets after ≈: the same amount, converted by molar mass.

Experiments:
Escherichia coli [1] = experiment: in vivo effective dose in experimental infections in mice; details: ip, E. coli infection in mice
Description: (§1) The in vivo effective dose […] in mg./kg. for representative antibiotics of the formula I has been determined in experimental infections in mice. Table II lists the ED50 dose vs. Streptococcus pyogenes and Escherichia coli infections. In the table, the antibiotics are identified with the R", R', and R1 -R3 terms of Formula I. |Test Compound ED50 (mg/kg × 2) i.p.

Streptococcus pyogenes = experiment: as above; details: ip, S. pyogenes infection in mice
Description: as §1

V32 = experiment: Gradient Plate in vitro method, MIC; format: cell-based, penicillin resistant Staphyloccus; details: V32, penicillin resistant Staphylococcus, read-out: Minimum Inhibitory Concentration
Description: (§2) The antibiotic activity of the cephalosporin compounds of the formula I is illustrated by the data presented in Table I for representative compounds. The values in the table are the minimum inhibitory concentrations (MIC) for the test compounds against the indicated microorganisms. The MIC values were obtained in the Gradient Plate in vitro method for determining antibiotic activity.
(§3) Minimum Inhibitory Concentration (mcg./ml.)
(§4) ^1 Test organisms V41, V32 and V84 are penicillin resistant
(§5) Staphyloccus, X400 is a methicillin resistant Staphylococcus.

V41 = experiment: Gradient Plate in vitro method, MIC; format: cell-based, penicillin resistant Staphyloccus; details: V41, penicillin resistant Staphylococcus, read-out: Minimum Inhibitory Concentration
Description: as §2, §3, §4, §5

V84 = experiment: Gradient Plate in vitro method, MIC; format: cell-based, penicillin resistant Staphyloccus; details: V84, penicillin resistant Staphylococcus, read-out: Minimum Inhibitory Concentration
Description: as §2, §3, §4, §5

Shigella sp. = experiment: Gradient Plate in vitro method, MIC; format: cell-based; details: read-out: Minimum Inhibitory Concentration
Description: as §2, §3

Klebsiella pneumoniae = experiment: Gradient Plate in vitro method, MIC; format: cell-based; details: read-out: Minimum Inhibitory Concentration
Description: as §2, §3

Pseudomonas aeruginosa = experiment: Gradient Plate in vitro method, MIC; format: cell-based; details: read-out: Minimum Inhibitory Concentration
Description: as §2, §3

Salmonella heidelberg = experiment: Gradient Plate in vitro method, MIC; format: cell-based; details: Salmonella enterica, read-out: Minimum Inhibitory Concentration
Description: as §2, §3

Aerobacter aerogenes = experiment: Gradient Plate in vitro method, MIC; format: cell-based; details: Klebsiella aerogenes, read-out: Minimum Inhibitory Concentration
Description: as §2, §3

X400 = experiment: Gradient Plate in vitro method, MIC; format: cell-based; details: X400, methicillin resistant Staphylococcus, read-out: Minimum Inhibitory Concentration
Description: as §2, §3, §4, §5

Serratia marcescens = experiment: Gradient Plate in vitro method, MIC; format: cell-based; details: read-out: Minimum Inhibitory Concentration
Description: (§6) The values in the table are the minimum inhibitory concentrations (MIC) for the test compounds against the indicated microorganisms. The MIC values were obtained in the Gradient Plate in vitro method for determining antibiotic activity.

Escherichia coli [2] = experiment: Gradient Plate in vitro method, MIC; format: cell-based; details: read-out: Minimum Inhibitory Concentration
Description: as §6

Staphylococcus aureus = experiment: standard gear agar dilution method, MIC; format: cell-based
Description: In the standard gear agar dilution method, the MIC values for the above test compounds A through E against Staphylococcus aureus were as follows: A, 2; B, 1; C, 0.5; D, 2; and E, 0.5 mcg./m1.

| Compound | ED50 (Escherichia coli [1]) [mg/kg] | ED50 (Streptococcus pyogenes) [mg/kg] | MIC (V32) [µg/mL] | MIC (V41) [µg/mL] | MIC (V84) [µg/mL] | MIC (Shigella sp.) [µg/mL] | MIC (Klebsiella pneumoniae) [µg/mL] | MIC (Pseudomonas aeruginosa) [µg/mL] | MIC (Salmonella heidelberg) [µg/mL] | MIC (Aerobacter aerogenes) [µg/mL] | MIC (X400) [µg/mL] | MIC (Serratia marcescens) [µg/mL] | MIC (Escherichia coli [2]) [µg/mL] | MIC (Staphylococcus aureus) [µg/mL] |
| --- | --- | --- | --- | --- | --- | --- | --- | --- | --- | --- | --- | --- | --- | --- |
| CNC(=O)NC(=O)NC(C(=O)NC1C(=O)N2C(C(=O)O)=C(CSc3nnc(C)s3)CSC12)c1ccc(O)cc1 (stereo not drawn) [Example 14, 7-[α-(3-methylcarbamoyl-1-ureido)-α-(4-hydroxyphenyl)acetamido]-3-(5-methyl-1,3,4-thiadiazole-2-ylthiomethyl)-3-cephem-4-carboxylic acid] | < 72 | 0.7 |  |  |  |  |  |  |  |  |  |  |  |  |
| CNC(=O)N(C)C(=O)NC(C(=O)NC1C(=O)N2C(C(=O)O)=C(CSc3nnnn3C)CSC12)c1cccs1 (stereo not drawn) [Test Compound K, 7-[α-(3-methylcarbamoyl-3-methyl-1-ureido)-α-(2-thienyl)acetamido]-3-(1-methyl-1H-tetrazole-5-ylthiomethyl)-3-cephem-4-carboxylic acid] |  |  | 3 (≈ 5.16 µM) | 3 (≈ 5.16 µM) | 3 (≈ 5.16 µM) | 1 (≈ 1.72 µM) | 0.9 (≈ 1.55 µM) | 21.5 (≈ 37 µM) | 10 (≈ 17.2 µM) | 1 (≈ 1.72 µM) | > 20 | 19.5 (≈ 33.5 µM) | 2.5 (≈ 4.3 µM) |  |
| Cn1nnnc1SCC1=C(C(=O)O)N2C(=O)C(NC(=O)C(NC(=O)NC(=O)Nc3ccccc3)c3ccccc3)C2SC1 (stereo not drawn) [Test Compound M, 7-[α-(3-phenylcarbamoyl-1-ureido)-α-phenylacetamido]-3-(1-methyl-1H-tetrazole-5-ylthiomethyl)-3-cephem-4-carboxylic acid] |  |  | 0.5 (≈ 0.802 µM) | 0.6 (≈ 0.962 µM) | 0.5 (≈ 0.802 µM) | 4 (≈ 6.41 µM) | 0.6 (≈ 0.962 µM) | 19.5 (≈ 31.3 µM) | 7.8 (≈ 12.5 µM) | 15.5 (≈ 24.9 µM) | 10 (≈ 16 µM) | 24 (≈ 38.5 µM) | 10 (≈ 16 µM) |  |
| CC(=O)OCC1=C(C(=O)O)N2C(=O)C(NC(=O)C(NC(=O)N3CCNC3=O)c3ccccc3)[C@H]2SC1 (stereo partly drawn) [Test Compound E, 7-[α-(imidazolidine-2-one-1-ylcarbonylamino)-α-phenylacetamido]-3-acetoxymethyl-3-cephem-4-carboxylic acid] |  |  | 5 (≈ 9.66 µM) | 2 (≈ 3.86 µM) | 0.4 (≈ 0.773 µM) | 10 (≈ 19.3 µM) | 12 (≈ 23.2 µM) | 24 (≈ 46.4 µM) | 11 (≈ 21.3 µM) | 10 (≈ 19.3 µM) | > 20 | 42 (≈ 81.2 µM) | 18 (≈ 34.8 µM) | 0.5 (≈ 0.966 µM) |
| CNC(=O)N(C)C(=O)NC(C(=O)NC1C(=O)N2C(C(=O)O)=C(CSc3nnnn3C)CSC12)c1ccccc1 (stereo not drawn) [Test Compound F, 7-[α-(3-methylcarbamoyl-3-methyl-1-ureido)-α-phenylacetamido]-3-(1-methyl-1H-tetrazole-5-ylthiomethyl)-3-cephem-4-carboxylic acid] |  |  | 5 (≈ 8.69 µM) | 5 (≈ 8.69 µM) | 4 (≈ 6.95 µM) | 3 (≈ 5.21 µM) | 1 (≈ 1.74 µM) | 22 (≈ 38.2 µM) | 3 (≈ 5.21 µM) | 3 (≈ 5.21 µM) | > 20 | 22 (≈ 38.2 µM) | 4 (≈ 6.95 µM) |  |
| CNC(=O)NC(=O)NC(C(=O)NC1C(=O)N2C(C(=O)O)=C(CSc3nnnn3C)CSC12)c1ccccc1 (stereo not drawn) [Test Compound J, 7-[α-(3-methylcarbamoyl-1-ureido)-α-phenylacetamido)-3-(1-methyl-1H-tetrazole-5-ylthiomethyl)-3-cephem-4-carboxylic acid] | 72 | 0.7 | 3 (≈ 5.34 µM) | 2 (≈ 3.56 µM) | 5 (≈ 8.9 µM) | 4 (≈ 7.12 µM) | 10 (≈ 17.8 µM) | 22.3 (≈ 39.7 µM) | 4.3 (≈ 7.66 µM) | 4.3 (≈ 7.66 µM) | > 20 | 130 (≈ 231 µM) | 7.5 (≈ 13.4 µM) |  |
| CNC(=O)NC(=O)NC(C(=O)NC1C(=O)N2C(C(=O)O)=C(CSc3nnc(C)s3)CSC12)c1ccc(O)cc1 (stereo not drawn) [Test Compound L, Sodium 7-[α-(3-methylcarbamoyl-1-ureido)-α-(4-hydroxyphenyl)acetamido]-3-(5-methyl-1,3,4-thiadiazole-2-ylthiomethyl)3-cephem-4-carboxylate] |  |  | 7.5 | 6.5 | 0.6 | 5.5 | 16 | 19.5 | 6.5 | 15.5 | > 20 | > 200 | 7.5 |  |
| Cn1nnnc1SCC1=C(C(=O)O)N2C(=O)C(NC(=O)C(NC(=O)NC(N)=O)c3ccccc3)C2SC1 (stereo not drawn) [Test Compound H] | < 72 | 0.7 | 4 (≈ 7.3 µM) | 2.5 (≈ 4.57 µM) | 1 (≈ 1.83 µM) | 9.5 (≈ 17.3 µM) | 35 (≈ 63.9 µM) | 60 (≈ 110 µM) | 12 (≈ 21.9 µM) | 15 (≈ 27.4 µM) | > 20 | > 200 | 16 (≈ 29.2 µM) |  |
| CNC(=O)N(C)C(=O)NC(C(=O)NC1C(=O)N2C(C(=O)O)=C(COC(C)=O)CSC12)c1ccccc1 (stereo not drawn) [Test Compound C, 7-[α-(3-methylcarbamoyl-3-methyl-1-ureido)-α-phenylacetamido]-3-acetoxymethyl-3-cephem-4-carboxylic acid] | < 7.2 | < 7.2 | 1 (≈ 1.92 µM) | 1 (≈ 1.92 µM) | 0.5 (≈ 0.962 µM) | 7 (≈ 13.5 µM) | 14 (≈ 26.9 µM) | 80 (≈ 154 µM) | 13 (≈ 25 µM) | 14 (≈ 26.9 µM) | > 20 | 80 (≈ 154 µM) | 11 (≈ 21.2 µM) | 0.5 (≈ 0.962 µM) |
| Cn1nnnc1SCC1=C(C(=O)O)N2C(=O)C(NC(=O)C(NC(=O)N3CCNC3=O)c3ccccc3)[C@H]2SC1 (stereo partly drawn) [Test Compound D, 7-[α-(imidazolidine-2-one-1-ylcarbonylamino)-α-phenylacetamido]-3-(1-methyl-1H-tetrazole-5-ylthiomethyl)-3-cephem-4-carboxylic acid] |  |  | 7 (≈ 12.2 µM) | 6 (≈ 10.5 µM) | 0.9 (≈ 1.57 µM) | 7 (≈ 12.2 µM) | 7 (≈ 12.2 µM) | 90 (≈ 157 µM) | 6 (≈ 10.5 µM) | 12 (≈ 20.9 µM) | > 20 | 70 (≈ 122 µM) | 12 (≈ 20.9 µM) | 2 (≈ 3.49 µM) |
| CNC(=O)NC(=O)NC(C(=O)NC1C(=O)N2C(C(=O)O)=C(CSc3nnnn3C)CSC12)c1cccs1 (stereo not drawn) [Test Compound I, 7-[α-(3-methylcarbamoyl-1-ureido)-α-(2-thienyl)-acetamido]-3-(1-methyl-1H-tetrazole-5-ylthiomethyl)-3-cephem-4-carboxylic acid] | < 72 | < 7.2 | 0.7 (≈ 1.23 µM) | 0.6 (≈ 1.06 µM) | 0.6 (≈ 1.06 µM) | 3 (≈ 5.29 µM) | 6.8 (≈ 12 µM) | 16 (≈ 28.2 µM) | 4.5 (≈ 7.93 µM) | 4.3 (≈ 7.58 µM) | 13 (≈ 22.9 µM) | 35 (≈ 61.7 µM) | 5.5 (≈ 9.69 µM) |  |
